Measured values reported in ChEMBL document CHEMBL5465560, “Selectivity Literature for EUbOPEN Chemogenomic Library” (2024).

Tests used:
[1] = biological target: Receptor tyrosine-protein kinase erbB-4 (Homo sapiens, UniProt Q15303); experiment: Selectivity interaction (Millipore kinase profiler) EUB0000124b ERBB4; settings: at 10 µM
[2] = biological target: Ribosomal protein S6 kinase alpha-1 (Homo sapiens, UniProt Q15418); experiment: Selectivity interaction (Kinase panel (literature)) EUB0001199aCl RPS6KA1; settings: at 1 µM
[3] = test system: Tyrosine-protein kinase ABL1 (Homo sapiens), P00519 [Q252H]; experiment: Selectivity interaction (KinomeScan (DiscoverX)) EUB0000229b ABL1; settings: at 1 µM
[4] = biological target: Protein polybromo-1 (Homo sapiens) (UniProt Q86U86); experiment: Selectivity interaction (Bromodomain panel (DSF asssay)) EUB0000270b PBRM1
[5] = biological target: T1, Aurora kinase A (Homo sapiens) (UniProt O14965); experiment: Selectivity interaction (ActivX KiNativ screen (kinase selectivity in THP-1 cell lysates)) EUB0000639a STK6; format: subcellular; settings: lysate, at 0.2 µM
T1 sequence (whole entry): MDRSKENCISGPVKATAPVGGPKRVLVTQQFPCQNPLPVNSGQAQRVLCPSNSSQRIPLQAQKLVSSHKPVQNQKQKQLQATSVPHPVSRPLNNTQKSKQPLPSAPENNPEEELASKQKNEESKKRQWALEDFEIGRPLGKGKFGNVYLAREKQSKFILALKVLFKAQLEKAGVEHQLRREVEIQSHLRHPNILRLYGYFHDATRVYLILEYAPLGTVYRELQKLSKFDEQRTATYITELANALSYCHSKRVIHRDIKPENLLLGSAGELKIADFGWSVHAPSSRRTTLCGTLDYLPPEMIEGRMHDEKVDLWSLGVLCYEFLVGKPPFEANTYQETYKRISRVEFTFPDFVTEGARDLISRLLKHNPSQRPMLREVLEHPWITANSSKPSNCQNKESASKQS

[6] = biological target: T2, Serine/threonine-protein kinase DCLK3 (Homo sapiens) (UniProt Q9C098); experiment: Selectivity interaction (KinomeScan (DiscoverX)) EUB0000092b DCLK3; settings: at 10 µM
T2 sequence (whole entry): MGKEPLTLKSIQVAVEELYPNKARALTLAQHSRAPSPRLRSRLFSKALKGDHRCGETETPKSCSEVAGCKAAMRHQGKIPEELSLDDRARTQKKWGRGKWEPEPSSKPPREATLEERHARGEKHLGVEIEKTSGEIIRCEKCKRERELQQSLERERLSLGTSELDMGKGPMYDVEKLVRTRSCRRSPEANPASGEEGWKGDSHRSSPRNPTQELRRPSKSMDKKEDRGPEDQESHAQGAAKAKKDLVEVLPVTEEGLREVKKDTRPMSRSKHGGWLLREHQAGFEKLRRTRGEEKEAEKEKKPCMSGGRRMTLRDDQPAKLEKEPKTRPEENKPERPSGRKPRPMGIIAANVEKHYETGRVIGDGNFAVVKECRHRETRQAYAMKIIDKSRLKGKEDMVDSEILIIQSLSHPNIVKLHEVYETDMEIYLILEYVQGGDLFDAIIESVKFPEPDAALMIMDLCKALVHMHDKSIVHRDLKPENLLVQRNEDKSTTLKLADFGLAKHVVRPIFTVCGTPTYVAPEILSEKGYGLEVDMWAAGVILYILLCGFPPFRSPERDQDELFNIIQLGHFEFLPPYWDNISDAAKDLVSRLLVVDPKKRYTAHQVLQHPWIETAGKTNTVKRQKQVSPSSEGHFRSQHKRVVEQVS

[7] = biological target: Platelet-derived growth factor receptor beta (Homo sapiens, UniProt P09619); experiment: Selectivity interaction (KinomeScan (DiscoverX)) EUB0000092b PDGFRB; settings: at 10 µM
Sequence of Platelet-derived growth factor receptor beta (P09619 whole entry): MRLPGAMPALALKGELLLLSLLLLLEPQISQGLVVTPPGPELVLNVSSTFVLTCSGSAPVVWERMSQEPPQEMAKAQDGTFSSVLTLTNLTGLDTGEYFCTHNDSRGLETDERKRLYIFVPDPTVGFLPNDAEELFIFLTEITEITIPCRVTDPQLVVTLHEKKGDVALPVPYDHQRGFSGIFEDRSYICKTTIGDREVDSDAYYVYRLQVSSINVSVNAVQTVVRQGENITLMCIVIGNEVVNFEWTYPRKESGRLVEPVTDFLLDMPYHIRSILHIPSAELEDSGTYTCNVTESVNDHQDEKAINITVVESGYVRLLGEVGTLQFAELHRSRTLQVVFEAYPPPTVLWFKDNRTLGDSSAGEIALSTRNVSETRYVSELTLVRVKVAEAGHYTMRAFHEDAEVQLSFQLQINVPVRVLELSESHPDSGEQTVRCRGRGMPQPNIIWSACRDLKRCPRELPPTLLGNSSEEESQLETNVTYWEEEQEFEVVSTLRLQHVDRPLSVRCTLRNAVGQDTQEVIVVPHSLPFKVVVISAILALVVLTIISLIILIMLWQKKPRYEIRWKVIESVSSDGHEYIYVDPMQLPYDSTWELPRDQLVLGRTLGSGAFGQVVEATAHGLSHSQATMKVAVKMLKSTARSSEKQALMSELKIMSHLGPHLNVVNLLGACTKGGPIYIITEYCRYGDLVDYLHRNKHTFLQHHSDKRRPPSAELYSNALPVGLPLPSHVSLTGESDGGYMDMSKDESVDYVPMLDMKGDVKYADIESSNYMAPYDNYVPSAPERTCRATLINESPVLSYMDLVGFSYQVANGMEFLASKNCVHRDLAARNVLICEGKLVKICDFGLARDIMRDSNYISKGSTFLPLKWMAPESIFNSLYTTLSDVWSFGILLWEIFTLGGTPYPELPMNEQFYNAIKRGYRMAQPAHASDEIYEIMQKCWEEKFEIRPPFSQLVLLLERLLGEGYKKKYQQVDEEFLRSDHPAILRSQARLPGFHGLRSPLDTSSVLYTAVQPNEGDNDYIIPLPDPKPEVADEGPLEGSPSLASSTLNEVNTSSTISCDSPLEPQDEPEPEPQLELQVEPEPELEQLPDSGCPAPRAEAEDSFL

[8] = biological target: Tyrosine-protein kinase CSK (Homo sapiens) (UniProt P41240); experiment: Selectivity interaction (Kinase screening (Nanosyn)) EUB0000604a CSK
[9] = biological target: T2, Serine/threonine-protein kinase DCLK3 (Homo sapiens); experiment: Selectivity interaction (Ambit KINOMEscan and KiNATiv profiling in Jurkat cells) EUB0000090b DCLK3; format: cell-based; settings: at 1 µM
[10] = biological target: RAC-gamma serine/threonine-protein kinase (Homo sapiens, UniProt Q9Y243); settings: at 10 µM
Sequence of RAC-gamma serine/threonine-protein kinase (Q9Y243 whole entry): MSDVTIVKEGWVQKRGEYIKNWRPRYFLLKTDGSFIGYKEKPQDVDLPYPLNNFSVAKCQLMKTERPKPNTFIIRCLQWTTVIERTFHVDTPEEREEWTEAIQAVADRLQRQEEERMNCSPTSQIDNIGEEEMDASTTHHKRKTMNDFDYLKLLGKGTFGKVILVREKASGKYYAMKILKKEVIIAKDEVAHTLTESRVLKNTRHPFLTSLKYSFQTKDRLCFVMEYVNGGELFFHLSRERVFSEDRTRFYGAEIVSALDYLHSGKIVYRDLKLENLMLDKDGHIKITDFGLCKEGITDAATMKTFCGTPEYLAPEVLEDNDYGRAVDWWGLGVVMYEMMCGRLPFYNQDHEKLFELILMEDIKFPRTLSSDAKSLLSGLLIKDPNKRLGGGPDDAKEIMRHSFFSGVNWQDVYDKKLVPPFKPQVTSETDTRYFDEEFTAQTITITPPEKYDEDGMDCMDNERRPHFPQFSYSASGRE

[11] = biological target: MAP kinase-activated protein kinase 2 (Homo sapiens, UniProt P49137)
[12] = biological target: T3, Dual specificity mitogen-activated protein kinase kinase 5 (Homo sapiens) (UniProt Q13163); experiment: Selectivity interaction (KinomeScan (DiscoverX)) EUB0000655a MAP2K5; settings: at 10 µM
T3 sequence (whole entry): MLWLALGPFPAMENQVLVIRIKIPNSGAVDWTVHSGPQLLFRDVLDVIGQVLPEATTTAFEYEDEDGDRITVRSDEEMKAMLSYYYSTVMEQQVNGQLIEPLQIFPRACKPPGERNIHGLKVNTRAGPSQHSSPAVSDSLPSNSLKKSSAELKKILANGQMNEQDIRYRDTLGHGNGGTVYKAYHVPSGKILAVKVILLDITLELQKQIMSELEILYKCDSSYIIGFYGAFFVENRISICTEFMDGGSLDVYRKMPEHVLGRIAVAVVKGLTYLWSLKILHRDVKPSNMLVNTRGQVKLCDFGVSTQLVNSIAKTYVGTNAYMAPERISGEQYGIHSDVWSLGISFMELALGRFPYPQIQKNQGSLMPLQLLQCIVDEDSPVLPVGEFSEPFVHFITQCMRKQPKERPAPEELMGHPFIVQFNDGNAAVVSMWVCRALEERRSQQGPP

[13] = biological target: Homeodomain-interacting protein kinase 2 (Homo sapiens, UniProt Q9H2X6); experiment: Selectivity interaction (KinomeScan (DiscoverX)) EUB0000655a HIPK2; settings: at 10 µM
Sequence of Homeodomain-interacting protein kinase 2 (Q9H2X6 whole entry, looked up): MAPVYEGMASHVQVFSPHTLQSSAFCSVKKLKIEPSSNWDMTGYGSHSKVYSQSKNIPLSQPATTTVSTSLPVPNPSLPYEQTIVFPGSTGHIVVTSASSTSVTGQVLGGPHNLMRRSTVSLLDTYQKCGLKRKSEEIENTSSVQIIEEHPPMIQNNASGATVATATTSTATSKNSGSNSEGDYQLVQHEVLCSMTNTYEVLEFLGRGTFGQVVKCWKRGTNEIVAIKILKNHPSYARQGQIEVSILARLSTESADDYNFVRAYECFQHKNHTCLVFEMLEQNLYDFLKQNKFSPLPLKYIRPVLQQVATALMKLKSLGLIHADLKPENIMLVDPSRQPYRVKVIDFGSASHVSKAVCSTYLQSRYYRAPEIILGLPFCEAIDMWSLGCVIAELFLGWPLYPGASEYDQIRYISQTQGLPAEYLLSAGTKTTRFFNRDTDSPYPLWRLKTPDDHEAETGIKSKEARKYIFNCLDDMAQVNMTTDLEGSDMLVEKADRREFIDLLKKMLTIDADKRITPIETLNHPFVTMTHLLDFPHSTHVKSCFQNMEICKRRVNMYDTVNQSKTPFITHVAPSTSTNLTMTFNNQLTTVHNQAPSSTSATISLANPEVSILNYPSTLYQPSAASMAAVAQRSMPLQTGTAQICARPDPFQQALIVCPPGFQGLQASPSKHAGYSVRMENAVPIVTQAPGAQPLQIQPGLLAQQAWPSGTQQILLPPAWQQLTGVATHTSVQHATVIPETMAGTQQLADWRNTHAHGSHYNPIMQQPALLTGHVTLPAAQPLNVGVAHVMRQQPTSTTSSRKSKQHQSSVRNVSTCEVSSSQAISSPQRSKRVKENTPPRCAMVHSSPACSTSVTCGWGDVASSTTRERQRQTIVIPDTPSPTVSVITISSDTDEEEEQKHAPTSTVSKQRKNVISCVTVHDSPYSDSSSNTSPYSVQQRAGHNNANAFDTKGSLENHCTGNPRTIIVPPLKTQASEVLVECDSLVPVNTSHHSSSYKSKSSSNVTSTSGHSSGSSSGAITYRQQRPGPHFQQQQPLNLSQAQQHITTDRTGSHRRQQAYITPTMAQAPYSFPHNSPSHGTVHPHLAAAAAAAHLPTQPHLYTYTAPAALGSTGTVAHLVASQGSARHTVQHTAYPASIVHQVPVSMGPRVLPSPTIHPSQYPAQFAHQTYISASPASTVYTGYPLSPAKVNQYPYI

[14] = biological target: Kappa-type opioid receptor (Homo sapiens, UniProt P41145); experiment: Selectivity interaction (Panel of kinases, GPCRs, ion channels and transporters (enzymatic assay)) EUB0000266bCl OPRK1
[15] = biological target: Receptor tyrosine-protein kinase erbB-2 (Homo sapiens, UniProt P04626); experiment: Selectivity interaction (KinomeScan (DiscoverX)) EUB0000607a ERBB2; settings: at 10 µM
[16] = biological target: Cholecystokinin receptor type A (Homo sapiens) (UniProt P32238); experiment: Selectivity interaction (Panel of non-epigenetic targets (kinases, GPCRs, ion channels, and transporters, Eurofins) ) EUB0000271b CCKAR; settings: at 1 µM
Sequence of Cholecystokinin receptor type A (Homo sapiens) (P32238 whole entry): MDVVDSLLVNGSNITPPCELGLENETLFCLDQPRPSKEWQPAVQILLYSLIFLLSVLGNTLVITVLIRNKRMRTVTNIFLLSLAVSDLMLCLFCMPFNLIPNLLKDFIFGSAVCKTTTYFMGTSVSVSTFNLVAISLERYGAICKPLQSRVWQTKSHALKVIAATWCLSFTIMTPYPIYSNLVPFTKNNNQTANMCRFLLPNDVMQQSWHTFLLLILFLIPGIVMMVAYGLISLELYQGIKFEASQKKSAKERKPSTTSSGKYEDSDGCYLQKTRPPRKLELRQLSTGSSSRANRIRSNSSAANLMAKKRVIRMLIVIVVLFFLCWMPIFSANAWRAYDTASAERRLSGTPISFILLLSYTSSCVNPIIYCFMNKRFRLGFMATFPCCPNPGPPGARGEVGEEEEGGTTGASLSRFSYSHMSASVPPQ

[17] = biological target: Death-associated protein kinase 3 (Homo sapiens) (UniProt O43293); experiment: Selectivity interaction (ProQinase) EUB0000171b DAPK3
Sequence of Death-associated protein kinase 3 (Homo sapiens) (O43293 whole entry, looked up): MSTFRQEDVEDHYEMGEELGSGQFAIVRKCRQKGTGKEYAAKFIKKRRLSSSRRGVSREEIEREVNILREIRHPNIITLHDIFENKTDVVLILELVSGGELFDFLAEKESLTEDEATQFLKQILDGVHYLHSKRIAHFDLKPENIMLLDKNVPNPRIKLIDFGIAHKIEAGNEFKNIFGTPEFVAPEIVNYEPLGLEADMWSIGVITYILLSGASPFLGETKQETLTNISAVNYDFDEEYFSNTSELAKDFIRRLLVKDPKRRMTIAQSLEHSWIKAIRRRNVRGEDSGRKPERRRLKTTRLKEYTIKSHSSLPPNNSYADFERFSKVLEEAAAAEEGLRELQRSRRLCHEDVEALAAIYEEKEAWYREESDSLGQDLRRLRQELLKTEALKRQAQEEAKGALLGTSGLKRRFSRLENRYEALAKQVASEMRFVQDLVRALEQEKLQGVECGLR

Sequence of Receptor tyrosine-protein kinase erbB-4 (Q15303 whole entry): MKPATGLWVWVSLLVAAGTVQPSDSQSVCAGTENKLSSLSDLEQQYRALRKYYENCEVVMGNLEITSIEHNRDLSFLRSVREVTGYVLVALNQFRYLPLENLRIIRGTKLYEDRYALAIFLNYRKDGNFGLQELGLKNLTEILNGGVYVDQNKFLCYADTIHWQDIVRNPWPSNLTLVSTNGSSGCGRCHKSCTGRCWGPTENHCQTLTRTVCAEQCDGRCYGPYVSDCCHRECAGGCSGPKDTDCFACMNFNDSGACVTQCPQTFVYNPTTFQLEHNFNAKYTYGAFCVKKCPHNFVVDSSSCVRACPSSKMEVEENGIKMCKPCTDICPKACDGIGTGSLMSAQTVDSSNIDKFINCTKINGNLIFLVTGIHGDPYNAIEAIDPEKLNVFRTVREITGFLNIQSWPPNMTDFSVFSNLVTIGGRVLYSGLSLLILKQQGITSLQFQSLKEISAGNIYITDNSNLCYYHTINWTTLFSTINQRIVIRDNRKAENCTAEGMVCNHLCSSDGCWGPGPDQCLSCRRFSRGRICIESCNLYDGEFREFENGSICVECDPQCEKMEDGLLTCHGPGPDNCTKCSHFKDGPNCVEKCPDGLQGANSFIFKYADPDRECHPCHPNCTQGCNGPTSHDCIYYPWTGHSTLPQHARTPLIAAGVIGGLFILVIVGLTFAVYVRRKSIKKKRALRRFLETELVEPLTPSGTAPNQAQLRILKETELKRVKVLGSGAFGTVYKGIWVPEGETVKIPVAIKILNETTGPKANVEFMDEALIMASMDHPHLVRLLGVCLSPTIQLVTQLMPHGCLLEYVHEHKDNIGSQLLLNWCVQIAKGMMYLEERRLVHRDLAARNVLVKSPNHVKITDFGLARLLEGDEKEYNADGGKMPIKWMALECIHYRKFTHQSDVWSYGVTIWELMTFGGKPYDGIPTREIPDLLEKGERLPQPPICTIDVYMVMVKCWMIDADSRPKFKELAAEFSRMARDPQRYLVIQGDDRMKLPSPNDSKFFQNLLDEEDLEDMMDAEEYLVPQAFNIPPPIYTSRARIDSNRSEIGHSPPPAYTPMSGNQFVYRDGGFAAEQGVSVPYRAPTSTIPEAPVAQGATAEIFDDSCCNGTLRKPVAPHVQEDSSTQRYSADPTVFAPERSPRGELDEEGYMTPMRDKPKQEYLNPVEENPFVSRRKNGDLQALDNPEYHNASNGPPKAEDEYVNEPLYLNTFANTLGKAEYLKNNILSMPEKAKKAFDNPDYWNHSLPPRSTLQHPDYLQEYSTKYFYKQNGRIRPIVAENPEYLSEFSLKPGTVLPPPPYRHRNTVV

SMILES: CC(=O)Nc1cccc(-n2c(=O)n(C3CC3)c(=O)c3c(Nc4ccc(I)cc4F)n(C)c(=O)c(C)c32)c1
- % of control [1]: 101%

SMILES: CN1Cc2nccc(-c3cn(C)nc3-c3ccc(F)cc3)c2C1=O
- % of inhibition [2]: 18%

SMILES: COc1cc(N(C)c2ccnc3ccc(C(F)(F)F)cc23)cc(OC)c1OC
- % binding [3]: 91%

SMILES: Cc1cc(CN)cc(C)c1-c1ncn(C)c1-c1cncn1C
- dTM [4]: -1.53 K

SMILES: CC[C@@H]1[C@H](F)C(=O)N[C@@H]1COc1nccc2cc(C(N)=O)c(OC)cc12 [ZIMLOVISERTIB]
- % of inhibition [5]: 20.9%

SMILES: CCC(=O)N1CCN(c2ccc(-n3c(=O)ccc4cnc5ccc(-c6cnc7ccccc7c6)cc5c43)cc2C(F)(F)F)CC1
- % of control [6]: 97%
- % of control [7]: 24%

SMILES: Cc1cnc(Nc2ccc(F)cc2Cl)nc1-c1c[nH]c(C(=O)N[C@H](CO)c2cccc(Cl)c2)c1
- % of inhibition [8]: 3%

SMILES: CN(C)C/C=C/C(=O)Nc1ccc(C(=O)N2CCCC(Nc3ncc(Cl)c(-c4c[nH]c5ccccc45)n3)C2)cc1 (stereo not drawn)
- % of control [9]: 76%

SMILES: Cc1cc([C@@H](C)Nc2ccccc2C(=O)O)c2nc(N3CCOCC3)cc(=O)n2c1 [AZD-6482]
- % of control [10]: 100%

SMILES: CCc1cccc(CC)c1NC(=O)c1nn(C)c2c1CCc1cnc(Nc3ccc(C(=O)NC4CCN(C)CC4)cc3OC(F)(F)F)nc1-2
- IC50 [11]: > 10 µM

SMILES: CN(C)CCOc1ccc(-c2nc(-c3ccncc3)c(-c3ccc4c(c3)CC/C4=N\O)[nH]2)cc1
- % of control [12]: 22%
- % of control [13]: 19%

SMILES: CCn1c(-c2nc3cc(C(=O)N4CCCC(N)C4)ccc3n2C)cc2ccccc21 (stereo not drawn)
- pXC50 [14]: < 4 M

SMILES: CNC(=O)Nc1ccc(-c2nc(N3CC4CCC(C3)O4)c3cnn(C4CCC5(CC4)OCCO5)c3n2)cc1
- % of control [15]: 88%

SMILES: Cc1cc(C)cc([C@@H]2c3cc(C)ccc3NC(=O)CN2C(=O)c2ccc(Br)s2)c1
- % of inhibition [16]: 1%

SMILES: C=CC(=O)Nc1cccc(C(=O)Nc2ccc(Nc3cc(-c4[nH]c(SC)nc4C)ccn3)cc2)c1
- % of control ([17]; at 1 µM): 88%
- % of control ([17]; at 5 µM): 88%
